The values below come from patent publication US20140135310A1, “SULPHONAMIDE DERIVATIVES OF ALICYCLIC AMINES FOR THE TREATMENT OF CENTRAL NERVOUS SYSTEM DISEASES” (Adamed Sp. z o.o., priority 2011, published 2014).

Assay [1] concerns the target T1, 5-HT2A receptor (Homo sapiens, UniProt P28223).
T1 construct: purchased PerkinElmer
As to the kind of experiment: Radioligand binding assay, serotoninergic 5-HT2A receptors. The conditions noted are these: binding assay result in %, Table 5a. In a few lines: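 Competition curves from scintillation-counted specific binding (total minus binding with excess unlabelled ligand) were Hill-fitted to give IC50, converted to Ki via Cheng-Prusoff using Scatchard-derived Kd.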

Assay [2] deals with T2, serotonin transporter (SERT) (Homo sapiens, UniProt P31645).
T2 construct: expressed in transfected cells; host or cells: CHO cells
As to the kind of experiment: Radioligand binding assay, serotonin transporter (SERT). To be noted: binding assay, test compound 1×10^−6 M. Put shortly: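 Values are derived from competition curves fitted by the Hill equation to give IC50, then converted to Ki by Cheng-Prusoff with radioligand Kd from Scatchard analysis. Specific binding equals total minus non-specific (excess cold ligand), counted by scintillation, and is also expressed as percent inhibition of control.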

In assay [3] the target is dopaminergic receptors D3 (Homo sapiens, UniProt P35462). As to the kind of experiment: Radioligand binding assay, dopaminergic D3 receptors. To be noted: test compound 1×10^−6 M. In a few lines: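 Scintillation read-out. Specific = total − nonspecific (excess cold ligand). Data as % of control specific binding / % inhibition; IC50 by Hill fit; Ki = IC50/(1+L/KD), KD from Scatchard plot.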

Assay [4] concerns the target dopaminergic receptors D2 (Homo sapiens, UniProt P14416). The assay can be described thus: Radioligand binding assay, dopaminergic D2 receptors. To be noted: binding assay, test compound 1×10^−6 M. Put shortly:
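Displacement of radioligand from human dopamine D2, D3 or D4.4 receptors, counted by scintillation; specific binding is total minus binding under excess unlabelled ligand. IC50 values come from Hill curve fits of percent inhibition, then converted to Ki by Cheng-Prusoff using Scatchard-derived KD.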

The target in assay [5] is T3, 5-HT7 receptor (Homo sapiens, UniProt P34969).
T3 construct: purchased PerkinElmer
The assay can be described thus: Radioligand binding assay, serotoninergic 5-HT7 receptors.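 Further: test compound at 1 µM.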 The conditions noted are these: binding assay result in %, Table 5a. In a few lines:
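Ki values used the Cheng–Prusoff equation, with KD from Scatchard analysis, applied to IC50 from Hill fits of human 5-HT7 radioligand competition curves. Bound radioligand was counted by scintillation, and excess unlabelled ligand set the non-specific binding.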

Assay [6] has as its target T4, 5-HT6 receptor (Homo sapiens, UniProt P50406).
T4 construct: purchased PerkinElmer
The assay can be described thus: Radioligand binding assay, serotoninergic 5-HT6 receptors.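 Further: test compound at 1 µM.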 To be noted: binding assay result in %, Table 5a. In a few lines: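 Values are Ki from Cheng–Prusoff, taking IC50 from Hill nonlinear regression of competition curves and KD from a Scatchard plot. Specific binding was total minus binding with excess unlabelled ligand. Radioligand displacement was detected by scintillation counting, and data were also reported as percent of control specific binding.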

Assay [7] addresses T5, 5-HT1A receptor (rat hippocampus) (Rattus norvegicus, UniProt P19327).
T5 construct: hippocampus; from tissue; host or cells: rat hippocampus
T5 sequence (P19327 1-422): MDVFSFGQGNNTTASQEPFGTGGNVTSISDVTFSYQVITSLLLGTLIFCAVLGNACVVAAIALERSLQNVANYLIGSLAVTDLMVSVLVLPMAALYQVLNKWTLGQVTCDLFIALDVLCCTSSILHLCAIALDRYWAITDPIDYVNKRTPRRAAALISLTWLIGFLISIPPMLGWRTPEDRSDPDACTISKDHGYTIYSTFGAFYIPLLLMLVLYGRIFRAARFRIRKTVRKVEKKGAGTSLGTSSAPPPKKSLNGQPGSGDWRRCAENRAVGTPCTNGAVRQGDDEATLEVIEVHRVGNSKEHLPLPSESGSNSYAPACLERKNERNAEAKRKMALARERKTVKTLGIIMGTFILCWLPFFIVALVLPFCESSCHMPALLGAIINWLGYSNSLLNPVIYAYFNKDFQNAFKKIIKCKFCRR
As to the kind of experiment: Radioligand binding assay, serotoninergic 5-HT1A receptors.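 Further: test compound at 1 µM.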 To be noted: binding assay result in %, Table 5a.

The test system of assay [8] is α1 adrenergic receptors (rat cerebral cortex). The assay can be described thus: Radioligand binding assay, adrenergic α1 receptors. The conditions noted are these: test compound 1×10^−6 M. An excerpt:
The specific ligand binding to the receptors is defined as the difference between the total binding and the non-specific binding determined in the presence of the excess of unlabelled ligand.
The results are expressed as a percent of control specific binding ((measured specific binding/control specific binding)×100) and as a percent inhibition of control specific binding (100−((measured specific binding/control specific binding)×100)) obtained in the presence of the test compounds. The specific ligand binding to the receptors is defined as the difference between the total binding and the nonspecific binding determined in the presence of an excess of unlabelled ligand. Scintillation counting was the method of detection of ligand binding. The IC50 values (concentration causing a half-maximal inhibition of control specific binding) were determined by non-linear regression analysis of the competition curves generated with mean replicate values using Hill equation curve fitting (Y=D+[(A−D)/(1+(C/C50)nH)], where Y=specific binding, D=minimum specific binding, A=maximum specific binding, C=compound concentration, C50=IC50, and nH=slope factor). […] The inhibition constants (Ki) were calculated using the Cheng Prusoff equation (Ki=IC50/(1+(L/KD)), where L=concentration of radioligand in the assay, and KD=affinity of the radioligand for the receptor). A scatchard plot was used to determine the Kd.

SMILES strings stand for the structures.

T4 sequence (P50406 whole entry): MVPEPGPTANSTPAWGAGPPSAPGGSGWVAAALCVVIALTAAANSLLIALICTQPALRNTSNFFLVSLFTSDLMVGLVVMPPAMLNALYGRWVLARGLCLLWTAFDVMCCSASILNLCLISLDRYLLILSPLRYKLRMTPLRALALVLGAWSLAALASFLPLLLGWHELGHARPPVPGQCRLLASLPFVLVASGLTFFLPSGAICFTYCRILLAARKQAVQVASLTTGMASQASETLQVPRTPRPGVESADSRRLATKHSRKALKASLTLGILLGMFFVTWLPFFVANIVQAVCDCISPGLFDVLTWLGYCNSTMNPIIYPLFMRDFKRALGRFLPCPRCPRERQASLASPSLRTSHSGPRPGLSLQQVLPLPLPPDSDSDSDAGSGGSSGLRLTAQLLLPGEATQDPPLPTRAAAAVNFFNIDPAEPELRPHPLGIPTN
T2 sequence (P31645 whole entry): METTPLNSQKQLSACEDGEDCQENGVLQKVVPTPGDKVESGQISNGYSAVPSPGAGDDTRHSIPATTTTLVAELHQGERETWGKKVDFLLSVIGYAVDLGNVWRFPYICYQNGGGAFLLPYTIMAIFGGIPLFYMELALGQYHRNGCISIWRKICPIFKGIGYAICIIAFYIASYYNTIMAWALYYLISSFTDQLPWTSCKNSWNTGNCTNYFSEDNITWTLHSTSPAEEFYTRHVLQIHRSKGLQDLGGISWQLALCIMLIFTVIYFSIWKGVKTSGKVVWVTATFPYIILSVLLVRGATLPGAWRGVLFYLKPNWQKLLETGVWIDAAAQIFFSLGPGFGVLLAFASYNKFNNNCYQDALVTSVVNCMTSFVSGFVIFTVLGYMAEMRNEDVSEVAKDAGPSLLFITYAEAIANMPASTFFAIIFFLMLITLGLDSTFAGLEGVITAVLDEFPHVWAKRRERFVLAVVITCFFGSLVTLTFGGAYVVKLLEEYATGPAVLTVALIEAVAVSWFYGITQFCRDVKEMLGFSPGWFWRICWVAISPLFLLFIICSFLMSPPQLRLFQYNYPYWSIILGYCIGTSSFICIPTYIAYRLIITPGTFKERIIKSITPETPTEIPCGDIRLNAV
T3 sequence (P34969 whole entry): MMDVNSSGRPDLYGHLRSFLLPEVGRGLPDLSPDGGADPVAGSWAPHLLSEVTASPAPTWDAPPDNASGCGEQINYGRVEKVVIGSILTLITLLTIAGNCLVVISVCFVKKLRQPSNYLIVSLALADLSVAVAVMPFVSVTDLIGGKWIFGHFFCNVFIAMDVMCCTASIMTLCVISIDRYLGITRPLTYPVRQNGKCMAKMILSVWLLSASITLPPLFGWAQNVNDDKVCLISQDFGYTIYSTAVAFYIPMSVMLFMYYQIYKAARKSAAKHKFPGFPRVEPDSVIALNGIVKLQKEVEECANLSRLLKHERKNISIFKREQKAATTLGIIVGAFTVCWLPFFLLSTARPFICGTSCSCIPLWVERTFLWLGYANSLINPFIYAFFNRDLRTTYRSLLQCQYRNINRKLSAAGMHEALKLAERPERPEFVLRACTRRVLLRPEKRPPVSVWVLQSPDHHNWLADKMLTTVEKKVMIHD
dopaminergic receptors D3, sequence (P35462 whole entry): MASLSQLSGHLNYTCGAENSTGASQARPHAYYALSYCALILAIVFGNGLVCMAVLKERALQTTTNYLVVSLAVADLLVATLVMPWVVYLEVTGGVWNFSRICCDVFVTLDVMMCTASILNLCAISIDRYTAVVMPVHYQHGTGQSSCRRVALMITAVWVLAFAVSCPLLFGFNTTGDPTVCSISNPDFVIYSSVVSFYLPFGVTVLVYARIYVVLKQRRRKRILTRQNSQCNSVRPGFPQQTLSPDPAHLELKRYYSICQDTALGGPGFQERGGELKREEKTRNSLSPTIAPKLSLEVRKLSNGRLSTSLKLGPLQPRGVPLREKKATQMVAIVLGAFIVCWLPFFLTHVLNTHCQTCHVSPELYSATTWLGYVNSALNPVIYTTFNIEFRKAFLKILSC
T1 sequence (P28223 whole entry): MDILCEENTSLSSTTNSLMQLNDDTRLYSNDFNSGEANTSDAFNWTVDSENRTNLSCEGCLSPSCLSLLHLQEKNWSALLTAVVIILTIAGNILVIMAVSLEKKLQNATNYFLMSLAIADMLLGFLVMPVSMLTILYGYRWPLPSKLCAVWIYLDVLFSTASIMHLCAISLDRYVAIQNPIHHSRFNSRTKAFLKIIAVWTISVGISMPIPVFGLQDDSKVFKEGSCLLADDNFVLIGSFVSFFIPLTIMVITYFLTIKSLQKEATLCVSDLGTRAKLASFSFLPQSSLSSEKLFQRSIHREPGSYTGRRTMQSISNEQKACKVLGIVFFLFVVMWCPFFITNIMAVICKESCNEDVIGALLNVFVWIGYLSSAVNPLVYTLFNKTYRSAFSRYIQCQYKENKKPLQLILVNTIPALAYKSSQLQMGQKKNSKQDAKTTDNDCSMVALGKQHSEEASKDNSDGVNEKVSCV
dopaminergic receptors D2, sequence (P14416 whole entry): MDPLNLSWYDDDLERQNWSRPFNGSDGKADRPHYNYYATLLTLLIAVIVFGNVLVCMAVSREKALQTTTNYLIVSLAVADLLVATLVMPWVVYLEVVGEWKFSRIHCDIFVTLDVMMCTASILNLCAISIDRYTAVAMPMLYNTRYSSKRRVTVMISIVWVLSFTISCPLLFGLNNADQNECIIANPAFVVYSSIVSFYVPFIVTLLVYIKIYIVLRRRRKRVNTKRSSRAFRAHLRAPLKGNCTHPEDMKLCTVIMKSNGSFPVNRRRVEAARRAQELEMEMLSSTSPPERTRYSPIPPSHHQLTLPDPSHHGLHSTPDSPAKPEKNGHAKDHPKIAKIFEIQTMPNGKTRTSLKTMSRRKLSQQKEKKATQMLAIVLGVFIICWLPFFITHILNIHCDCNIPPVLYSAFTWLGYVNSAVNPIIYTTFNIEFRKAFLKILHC

For `O=S(=O)(NC1CCN(CCOc2nsc3ccccc23)CC1)c1ccc2ccccc2c1` [Compound 40, N-[1-[2-(1,2-Benzothiazol-3-yloxy)ethyl]-4-piperidine]naphthalene-2-sulphonamide], the “5-HT2A [%]” value in assay [1] turned out to be 102%. Further, the “SERT [%]” value in assay [2] is −5%. Besides, the “D3 [%]” value in assay [3] came to 39%. Also, the “D2 [%]” value in assay [4] came out at 49%. The “5-HT7 [%]” value in assay [5] was 85%. Moreover, in assay [6], the “5-HT6 [%]” value was determined as 72%. In addition, the “5-HT1A [%]” value in assay [7] came to 68%. Moreover, the “α1 [%]” value in assay [8] worked out at 12%.

Turning to `O=S(=O)(NCC1CCN(CCOc2nsc3ccccc23)C1)c1cccc(O)c1` (stereo not drawn) [Compound 43, N-[[1-[2-(1,2-Benzothiazol-3-yloxy)ethyl]pyrrolidin-3-yl]methyl]-3-hydroxy-benzenesulphonamide], the inhibition at 1 µM in assay [1] is 81%; in assay [2], -7%; in assay [3], 29%; in assay [4] it was 55%; in assay [5], 71%; in assay [6], 87%. Also, the inhibition at 1 µM in assay [7] came out at 83%. For the same compound, the “α1 [%]” value in assay [8] amounted to 68%.

In the case of `O=S(=O)(NCC1CCN(CCOc2nsc3ccccc23)C1)c1ccc2ccccc2c1` (stereo not drawn) [Compound 44, N-[[1-[2-(1,2-Benzothiazol-3-yloxy)ethyl]pyrrolidin-3-yl]methyl]naphthalene-2-sulphonamide], the inhibition at 1 µM in assay [1] amounted to 78%; in assay [2] it was 25%; in assay [3], 52%; in assay [4], 76%; in assay [5], 68%; in assay [6], 81%. Besides, the inhibition at 1 µM in assay [7] is 62%. Moreover, in assay [8], the “α1 [%]” value came out at 46%.

Consider `O=S(=O)(NC1CN(CCOc2cccc3[nH]ccc23)C1)c1ccccc1` [Compound 45, N-[1-[2-(1H-indol-4-yloxy)ethyl]azetidin-3-yl]benzenesulphonamide], for which the inhibition at 1 µM is 75% in assay [1]; -4% in assay [2]; 87% in assay [3]; 53% in assay [4]; 93% in assay [5]; 0% in assay [6]. Moreover, the inhibition at 1 µM in assay [7] stood at 88%. Further, in assay [8], the “α1 [%]” value was 72%.

Turning to `O=S(=O)(NC1CCN(CCOc2cccc3[nH]ccc23)C1)c1ccccc1` (stereo not drawn) [Compound 51, N-[1-[2-(1H-Indol-4-yloxy)ethyl]pyrrolidin-3-yl]benzenesulphonamide], the inhibition at 1 µM in assay [1] worked out at 67%; in assay [2], 6%; in assay [3], 103%; in assay [4], 54%; in assay [5] it was 101%; in assay [6], 10%. Besides, the inhibition at 1 µM in assay [7] came to 91%. For the same compound, the “α1 [%]” value in assay [8] is listed as 77%.

`Cc1cccc(S(=O)(=O)NC2CCN(CCOc3cccc4[nH]ccc34)C2)c1` (stereo not drawn) [Compound 52, N-[1-[2-(1H-Indol-4-yloxy)ethyl]pyrrolidin-3-yl]-3-methylbenzene-sulphonamide]: the inhibition at 1 µM in assay [1] stood at 89%; in assay [2], 38%; in assay [3], 106%; in assay [4], 77%; in assay [5], 90%; in assay [6], 41%. For the same compound, the inhibition at 1 µM in assay [7] came to 90%. For the same compound, the “α1 [%]” value in assay [8] is recorded as 81%.

Take `O=S(=O)(NC1CCN(CCOc2cccc3[nH]ccc23)C1)c1cccc2ccccc12` (stereo not drawn) [Compound 53, N-[1-[2-(1H-indol-4-yloxy)ethyl]pyrrolidin-3-yl]naphthalene-1-sulphonamide]: the inhibition at 1 µM in assay [1] came out at 85%; in assay [2] it was 56%; in assay [3], 99%; in assay [4] it was 74%; in assay [5], 102%; in assay [6] it was 54%. Moreover, the inhibition at 1 µM in assay [7] was 90%. In assay [8], the “α1 [%]” value is given as 88%.

On to `O=S(=O)(NC1CCN(CCOc2cccc3[nH]ccc23)C1)c1ccc2ccccc2c1` (stereo not drawn) [Compound 54, N-[1-[2-(1H-Indol-4-yloxy)ethyl]pyrrolidin-3-yl]naphthalene-2-sulphonamide], for which the inhibition at 1 µM in assay [1] was 88%; in assay [2], 46%; in assay [3] it was 105%; in assay [4], 83%; in assay [5], 102%; in assay [6], 87%. For the same compound, the inhibition at 1 µM in assay [7] stood at 90%. In addition, the “α1 [%]” value in assay [8] is reported as 90%.

As to `Cc1cccc(S(=O)(=O)NC2CCN(CCOc3cccc4[nH]ccc34)CC2)c1` [Compound 56, N-[1-[2-(1H-Indol-4-yloxy)ethyl]-4-piperidine]-3-methylbenzene-sulphonamide], in assay [1], the “5-HT2A [%]” value is on record as 84%. In addition, the “SERT [%]” value in assay [2] is recorded as 15%. Besides, the “D3 [%]” value in assay [3] came out at 98%. The “D2 [%]” value in assay [4] stood at 34%. Besides, the “5-HT7 [%]” value in assay [5] is given as 106%. Besides, the “5-HT6 [%]” value in assay [6] turned out to be 36%. Further, the “5-HT1A [%]” value in assay [7] was 75%. Also, the “α1 [%]” value in assay [8] was 74%.

With `O=S(=O)(NC1CCN(CCOc2cccc3[nH]ccc23)CC1)c1cccc2ccccc12` [Compound 60, N-[1-[2-(1H-Indol-4-yloxy)ethyl]-4-piperidine]naphthalene-1-sulphonamide], in assay [1], the “5-HT2A [%]” value is recorded as 76%. Further, the “SERT [%]” value in assay [2] is 21%. Besides, in assay [3], the “D3 [%]” value was 102%. Besides, the “D2 [%]” value in assay [4] was found to be 41%. The “5-HT7 [%]” value in assay [5] was 96%. For the same compound, the “5-HT6 [%]” value in assay [6] is on record as 69%. Besides, the “5-HT1A [%]” value in assay [7] is 85%. Besides, in assay [8], the “α1 [%]” value was determined as 87%.

Turning to `O=S(=O)(NC1CCN(CCOc2cccc3[nH]ccc23)CC1)c1ccc2ccccc2c1` [Compound 61, N-[1-[2-(1H-Indol-4-yloxy)ethyl]-4-piperidine]naphthalene-2-sulphonamide], in assay [1], the “5-HT2A [%]” value is reported as 92%. Besides, the “SERT [%]” value in assay [2] is 43%. Moreover, the “D3 [%]” value in assay [3] was 83%. Besides, in assay [4], the “D2 [%]” value is reported as 39%. The “5-HT7 [%]” value in assay [5] stood at 95%. In assay [6], the “5-HT6 [%]” value is 71%. Besides, the “5-HT1A [%]” value in assay [7] is given as 77%. The “α1 [%]” value in assay [8] amounted to 79%.

With `O=S(=O)(NCC1CCN(CCOc2cccc3[nH]ccc23)CC1)c1ccc2ccccc2c1` [Compound 67, N-[[1-[2-(1H-Indol-4-yloxy)ethyl]-4-piperidine]methyl]naphthalene-2-sulphonamide], in assay [1], the “5-HT2A [%]” value was determined as 80%. Besides, the “SERT [%]” value in assay [2] is 38%. Besides, the “D3 [%]” value in assay [3] worked out at 94%. In addition, the “D2 [%]” value in assay [4] came to 57%. Besides, in assay [5], the “5-HT7 [%]” value is recorded as 79%. For the same compound, the “5-HT6 [%]” value in assay [6] is 87%. For the same compound, the “5-HT1A [%]” value in assay [7] is recorded as 76%. In assay [8], the “α1 [%]” value worked out at 91%.

By inhibition is commonly meant the change of the read-out against control, counted positive when it falls.
